ChEMBL document CHEMBL1250538 (Bioorg Med Chem, 2010)

Experiments:
K562 = experiment: Antiproliferative activity against human K562 cells; type: functional, cell-based
[1] = Antiproliferative activity against BCR-ABL1 transfected mouse BA/F3 cells; type: functional, cell-based; details: BaF3
[2] = Antiproliferative activity against PDGFRbeta transfected mouse BA/F3 cells; type: functional, cell-based; details: BaF3
[3] = Antiproliferative activity against human GIST882 cells; type: functional, cell-based
[4] = Antiproliferative activity against mouse M-NFS-60 cells; type: functional, cell-based
[5] = Antiproliferative activity mouse BA/F3 cells in presence of interleukin 3; type: functional, cell-based; details: BaF3
Homo sapiens [6] = organism: Homo sapiens; experiment: Toxicity in chronic CML patient assessed as cytogenetic response; type: organism-based; details: in vivo
Homo sapiens [7] = organism: Homo sapiens; experiment: Toxicity in chronic CML patient assessed as maximum tolerated dose; type: organism-based; details: in vivo

SMILES | IC50 (K562) | IC50 [1] | IC50 [2] | IC50 [3] | IC50 [4] | IC50 [5] | Activity (Homo sapiens [6]) | MTD (Homo sapiens [7])
Cc1ccc(NC(=O)c2ccc(CN3CCN(C)CC3)cc2)cc1Nc1nccc(-c2cccnc2)n1 [IMATINIB] | 244 nM | 678 nM | 39 nM | 108 nM | 358 nM | 9460 nM | Non-toxic | 400 mg
Cc1cn(-c2cc(NC(=O)c3ccc(C)c(Nc4nccc(-c5cccnc5)n4)c3)cc(C(F)(F)F)c2)cn1 [NILOTINIB] | 21 nM | 25 nM | 62 nM | 151 nM | 838 nM | > 10000 nM | – | –
